Assay results as given in patent US20250236608A1, “EGFR INHIBITORS” (Blueprint Medicines Corporation, priority 2022, published 2025).

How the values were obtained:
[1] = biological target: pEGFR (Tyr1068) in PC-9 cells (Ex19Del) (Homo sapiens (Human), UniProt P00533, DEL746-750); experiment: PC-9 pEGFR AlphaLISA assay; type: cell-based; details: 4 hours incubation, p-EGFR (Tyr1068) AlphaLISA, read-out: Ext pEGFR_PC-9 Ex19Del IC50
Summary of the method: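 First, cells settled overnight in 10% FBS medium. Second, a 10-point, 4-fold series of test agents was applied for 4 h at 37° C. Third, lysates were probed with AlphaLISA acceptor and donor beads, incubated overnight in the dark. Last, IC50 was taken from the dose-response.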

EGFR (d746-750) = EGFR (d746-750) (Homo sapiens (Human), UniProt P00533, DEL746-750); experiment: Biochemical EGFR inhibition assay, EGFR (d746-750); details: Caliper mobility shift; 1.0 mM ATP or ATP Km; read-out: Enz EGFR_Exon19-del746-750 IC50
Chain of EGFR (d746-750) (P00533 other isoform, or with tags, fused parts or gaps del 1-694/del 746-750 limits assumed): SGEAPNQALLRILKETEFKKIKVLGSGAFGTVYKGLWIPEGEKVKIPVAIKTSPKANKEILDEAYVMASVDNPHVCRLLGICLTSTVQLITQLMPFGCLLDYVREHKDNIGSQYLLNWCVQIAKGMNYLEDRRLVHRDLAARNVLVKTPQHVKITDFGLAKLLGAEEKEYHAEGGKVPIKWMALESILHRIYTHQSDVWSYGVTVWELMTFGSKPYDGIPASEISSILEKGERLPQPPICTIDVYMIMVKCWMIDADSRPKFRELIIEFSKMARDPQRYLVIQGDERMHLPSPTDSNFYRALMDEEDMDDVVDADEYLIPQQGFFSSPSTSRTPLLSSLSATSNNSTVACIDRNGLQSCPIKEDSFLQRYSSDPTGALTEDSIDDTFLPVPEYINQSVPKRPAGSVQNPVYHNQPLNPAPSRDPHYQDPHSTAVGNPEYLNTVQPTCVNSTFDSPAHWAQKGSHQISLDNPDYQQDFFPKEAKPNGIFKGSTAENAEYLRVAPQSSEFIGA

EGFR L858R = EGFR L858R (Homo sapiens (Human), UniProt P00533, L858R); experiment: Biochemical EGFR inhibition assay, EGFR L858R; details: Caliper mobility shift; 1.0 mM ATP or ATP Km; read-out: Enz EGFR_L858R IC50
Chain of EGFR L858R (P00533 25-1210 L858R): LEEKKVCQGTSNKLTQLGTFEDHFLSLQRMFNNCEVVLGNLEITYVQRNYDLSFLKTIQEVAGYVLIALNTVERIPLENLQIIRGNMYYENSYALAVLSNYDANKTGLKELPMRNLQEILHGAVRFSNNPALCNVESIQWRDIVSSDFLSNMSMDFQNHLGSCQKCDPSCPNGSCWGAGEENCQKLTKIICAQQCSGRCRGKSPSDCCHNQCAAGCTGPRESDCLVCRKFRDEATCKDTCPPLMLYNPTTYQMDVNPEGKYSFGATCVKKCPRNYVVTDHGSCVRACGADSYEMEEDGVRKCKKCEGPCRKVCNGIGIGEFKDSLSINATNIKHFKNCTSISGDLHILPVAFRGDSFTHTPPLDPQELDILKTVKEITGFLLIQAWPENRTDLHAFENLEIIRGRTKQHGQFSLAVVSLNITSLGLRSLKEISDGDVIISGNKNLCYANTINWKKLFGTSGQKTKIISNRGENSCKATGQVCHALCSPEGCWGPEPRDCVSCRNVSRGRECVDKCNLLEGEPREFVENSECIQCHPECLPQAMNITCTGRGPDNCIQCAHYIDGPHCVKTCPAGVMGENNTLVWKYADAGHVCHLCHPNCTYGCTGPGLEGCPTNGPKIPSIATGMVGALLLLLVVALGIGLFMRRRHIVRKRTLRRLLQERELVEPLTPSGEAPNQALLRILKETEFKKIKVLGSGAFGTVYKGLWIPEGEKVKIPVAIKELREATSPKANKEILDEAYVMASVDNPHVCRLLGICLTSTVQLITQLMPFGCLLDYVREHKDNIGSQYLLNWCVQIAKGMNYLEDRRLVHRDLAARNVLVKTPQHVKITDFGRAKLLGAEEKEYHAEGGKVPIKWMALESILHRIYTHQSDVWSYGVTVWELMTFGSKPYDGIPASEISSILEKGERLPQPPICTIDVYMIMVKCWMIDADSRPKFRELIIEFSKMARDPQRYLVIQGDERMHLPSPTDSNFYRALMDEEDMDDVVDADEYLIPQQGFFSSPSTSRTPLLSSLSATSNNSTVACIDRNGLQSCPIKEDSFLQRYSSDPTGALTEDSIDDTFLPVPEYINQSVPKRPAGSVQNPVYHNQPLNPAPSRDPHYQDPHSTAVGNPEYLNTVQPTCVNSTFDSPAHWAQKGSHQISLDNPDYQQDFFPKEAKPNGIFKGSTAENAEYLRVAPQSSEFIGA

Chain of pEGFR (Tyr1068) in PC-9 cells (Ex19Del) (P00533 other isoform, or with tags, fused parts or gaps del 746-750): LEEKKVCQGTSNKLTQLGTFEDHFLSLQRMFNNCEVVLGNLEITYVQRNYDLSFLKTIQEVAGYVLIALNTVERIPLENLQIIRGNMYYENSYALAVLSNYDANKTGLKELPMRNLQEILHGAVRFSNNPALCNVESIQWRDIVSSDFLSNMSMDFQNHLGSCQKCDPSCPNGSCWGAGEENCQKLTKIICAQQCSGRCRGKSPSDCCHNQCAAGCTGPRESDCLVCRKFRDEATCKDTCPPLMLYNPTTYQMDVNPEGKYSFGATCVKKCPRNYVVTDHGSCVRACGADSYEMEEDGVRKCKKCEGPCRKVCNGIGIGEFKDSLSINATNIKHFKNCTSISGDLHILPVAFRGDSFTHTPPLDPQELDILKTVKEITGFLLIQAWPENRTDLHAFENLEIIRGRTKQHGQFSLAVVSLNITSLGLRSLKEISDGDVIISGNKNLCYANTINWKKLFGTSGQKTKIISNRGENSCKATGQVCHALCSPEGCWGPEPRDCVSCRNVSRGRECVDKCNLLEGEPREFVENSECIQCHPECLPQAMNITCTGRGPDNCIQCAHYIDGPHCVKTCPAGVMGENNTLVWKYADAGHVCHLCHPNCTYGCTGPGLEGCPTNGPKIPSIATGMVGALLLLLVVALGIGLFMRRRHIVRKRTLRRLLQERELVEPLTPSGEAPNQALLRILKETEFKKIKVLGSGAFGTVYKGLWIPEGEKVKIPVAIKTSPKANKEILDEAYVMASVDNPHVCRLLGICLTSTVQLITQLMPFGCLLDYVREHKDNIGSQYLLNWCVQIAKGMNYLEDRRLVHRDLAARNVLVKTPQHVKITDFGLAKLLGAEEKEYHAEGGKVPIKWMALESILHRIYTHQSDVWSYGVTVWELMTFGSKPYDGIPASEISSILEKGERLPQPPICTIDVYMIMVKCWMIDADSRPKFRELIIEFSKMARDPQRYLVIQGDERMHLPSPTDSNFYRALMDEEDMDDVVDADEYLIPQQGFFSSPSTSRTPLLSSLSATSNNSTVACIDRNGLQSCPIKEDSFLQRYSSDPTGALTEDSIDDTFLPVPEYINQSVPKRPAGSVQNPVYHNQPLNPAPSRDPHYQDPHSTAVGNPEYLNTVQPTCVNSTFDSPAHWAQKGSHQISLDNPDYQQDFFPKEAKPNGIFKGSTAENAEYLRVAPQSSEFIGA

SMILES | IC50 [1] | IC50 (EGFR (d746-750)) | IC50 (EGFR L858R)
CCn1cc(-c2ncnc3cc(OC)c(NC(=O)[C@]45COC[C@H]4C5)nc23)c(-c2ccccc2)n1 (single isomer, unassigned) [Example 388, (1S,5S)—N-(4-(1-ethyl-3-phenyl-1H-pyrazol-4-yl)-7-methoxypyrido[3,2-d]pyrimidin-6-yl)-3-oxabicyclo[3.1.0]hexane-1-carboxamide or (1R,5R)—N-(4-(1-ethyl-3-phenyl-1H-pyrazol-4-yl)-7-methoxypyrido[3,2-d]pyrimidin-6-yl)-3-oxabicyclo[3.1.0]hexane-1-carboxamide] | 0.4 nM | 0.5 nM | 4.8 nM
[2H]C([2H])([2H])n1ncc(-c2ncnc3cc(OC)c(NC(=O)C45CC(N(C)C)(C4)C5)nc23)c1-c1ccccc1 [Example 493] | 258 nM | 31.9 nM | 92.4 nM
[2H]C([2H])([2H])n1ncc(-c2ncnc3cc(OC)c(NC(=O)C4(C(F)(F)F)CC4)nc23)c1-c1ccccc1 [Example 492] | 636 nM | 47.3 nM | 70.7 nM
C[C@@H](O)c1cc2c(-c3cn(CC(F)F)nc3-c3ccccc3)ncnc2cc1-c1cnn(C)c1 (single isomer, unassigned) [Example 445, (R)-1-(4-(1-(2,2-difluoroethyl)-3-phenyl-1H-pyrazol-4-yl)-7-(1-methyl-1H-pyrazol-4-yl)quinazolin-6-yl)ethan-1-ol or (S)-1-(4-(1-(2,2-difluoroethyl)-3-phenyl-1H-pyrazol-4-yl)-7-(1-methyl-1H-pyrazol-4-yl)quinazolin-6-yl)ethan-1-ol] | 2.7 nM | 1 nM | 1.5 nM
COc1cc2ncnc(-c3cn(C)nc3-c3ccccc3)c2cc1NC(=O)C1(C)CCC1 [Example 348, N-(7-methoxy-4-(1-methyl-3-phenyl-1H-pyrazol-4-yl)quinazolin-6-y1)-1-methylcyclobutane-1-carboxamide] | 3.4 nM | 1.7 nM | 3.2 nM
Cc1nnc([C@@H](C)Oc2nc3c(-c4cn(C)nc4-c4ccccc4)ncnc3cc2OC2CC2)o1 (single isomer, unassigned) [Example 478, 2-[(1S)-1-{[7-cyclopropoxy-4-(1-methyl-3-phenyl-1H-pyrazol-4-yl)pyrido[3,2-d]pyrimidin-6-yl]oxy}ethyl]-5-methyl-1,3,4-oxadiazole or 2-[(1R)-1-{[7-cyclopropoxy-4-(1-methyl-3-phenyl-1H-pyrazol-4-yl)pyrido[3,2-d]pyrimidin-6-yl]oxy}ethyl]-5-methyl-1,3,4-oxadiazole] | 3.6 nM | 2.8 nM | 10.5 nM
COc1cc2ncnc(-c3cn(C)nc3-c3ccccc3)c2cc1-c1cn(C)nc1C [Example 150, 6-(1,3-dimethyl-1H-pyrazol-4-yl)-7-methoxy-4-(1-methyl-3-phenyl-1H-pyrazol-4-yl)quinazoline] | 1.5 nM | 1.2 nM | 2.2 nM
COc1cc2ncnc(-c3cn(CC(F)F)nc3-c3ccccc3)c2cc1NC(=O)c1cncs1 [Example 213, N-(4-(1-(2,2-difluoroethyl)-3-phenyl-1H-pyrazol-4-yl)-7-methoxyquinazolin-6-yl)thiazole-5-carboxamide] | 0.6 nM | 0.6 nM | 0.9 nM
COc1cc2ncnc(-c3cn(C)nc3-c3ccccc3)c2cc1N1CCC[C@@H](O)C1 [Example 165, (R)-1-(7-methoxy-4-(1-methyl-3-phenyl-1H-pyrazol-4-yl)quinazolin-6-yl)piperidin-3-ol] | 10.2 nM | 1.7 nM | 3.4 nM
COc1cc2ncnc(-c3cn(C)nc3-c3ccccc3)c2nc1NC(=O)[C@H](C)N(C)C [Example 390, (S)-2-(dimethylamino)-N-(7-methoxy-4-(1-methyl-3-phenyl-1H-pyrazol-4-yl)pyrido[3,2-d]pyrimidin-6-yl) propenamide] | 8.7 nM | 3.9 nM | 9.3 nM
CCn1ccc(C(=O)Nc2cc3c(-c4cn(C)nc4-c4ccccc4)ncnc3cc2OC)n1 [Example 202, 1-ethyl-N-(7-methoxy-4-(1-methyl-3-phenyl-1H-pyrazol-4-yl)quinazolin-6-yl)-1H-pyrazole-3-carboxamide] | 0.6 nM | 0.6 nM | 0.9 nM
CCn1cc(-c2ncnc3cc(-c4cnn(C)c4)ccc23)c(-c2ccccc2)n1 [Example 496] | 0.4 nM | 0.6 nM | 0.7 nM
CCOc1cc2ncnc(-c3cn(C(C)C)nc3-c3ccccc3)c2cc1[C@@H](C)O (single isomer, unassigned) [Example 109, (R)-1-(7-ethoxy-4-(1-isopropyl-3-phenyl-1H-pyrazol-4-yl)quinazolin-6-yl)ethan-1-ol or (S)-1-(7-ethoxy-4-(1-isopropyl-3-phenyl-1H-pyrazol-4-yl)quinazolin-6-yl)ethan-1-ol] | 4.7 nM | 2.2 nM | 3.8 nM
COc1cc2ncnc(-c3cn(C)nc3-c3ccccc3)c2nc1O[C@H](C)c1cnnn1C [Example 41, (R)-7-methoxy-6-(1-(1-methyl-1H-1,2,3-triazol-5-yl)ethoxy)-4-(1-methyl-3-phenyl-1H-pyrazol-4-yl)pyrido[3,2-d]pyrimidine] | 9.2 nM | 4.1 nM | 8.3 nM
C[C@@H](O)c1cc2c(-c3cn(CC(F)F)nc3-c3ccccc3)ncnc2cc1O[C@H]1CCOC1 (single isomer, unassigned) [Example 118, (R)-1-(4-(1-(2,2-difluoroethyl)-3-phenyl-1H-pyrazol-4-yl)-7-(((S)-tetrahydrofuran-3-yl)oxy)quinazolin-6-yl)ethan-1-ol or (S)-1-(4-(1-(2,2-difluoroethyl)-3-phenyl-1H-pyrazol-4-yl)-7-(((S)-tetrahydrofuran-3-yl)oxy)quinazolin-6-yl)ethan-1-ol] | 6 nM | 2.4 nM | 3.9 nM
COc1cc2ncnc(-c3cn(C)nc3-c3ccccc3)c2cc1NC(=O)N1CCO[C@@H]2C[C@@H]21 (stereo in doubt) [Example 185, N-[7-methoxy-4-(1-methyl-3-phenyl-1H-pyrazol-4-yl)quinazolin-6-yl]-2-oxa-5-azabicyclo[4.1.0]heptane-5-carboxamide] | 3.1 nM | 1.3 nM | 2.1 nM
COc1cc2ncnc(-c3cn(C)nc3-c3ccccc3)c2nc1OC(C)c1nnnn1C (stereo not drawn) [Example 29, 7-methoxy-6-(1-(1-methyl-1H-tetrazol-5-yl)ethoxy)-4-(1-methyl-3-phenyl-1H-pyrazol-4-yl)pyrido[3,2-d]pyrimidine] | 11.3 nM | 1.9 nM | 4.8 nM
COc1cc2ncnc(-c3cn(C)nc3-c3ccccc3)c2nc1O[C@H](C)c1ncsc1C (single isomer, unassigned) [Example 53, (R)-4-(1-((7-methoxy-4-(1-methyl-3-phenyl-1H-pyrazol-4-yl)pyrido[3,2-d]pyrimidin-6-yl)oxy)ethyl)-5-methylthiazole or (S)-4-(1-((7-methoxy-4-(1-methyl-3-phenyl-1H-pyrazol-4-yl)pyrido[3,2-d]pyrimidin-6-yl)oxy)ethyl)-5-methylthiazole] | 2.7 nM | 1.1 nM | 12.8 nM
COc1cc2ncnc(-c3cn(C)nc3-c3ccccc3)c2cc1NC(=O)c1cncnc1 [Example 193, N-(7-methoxy-4-(1-methyl-3-phenyl-1H-pyrazol-4-yl)quinazolin-6-yl)pyrimidine-5-carboxamide] | 2.9 nM | 0.7 nM | 1.5 nM
COc1cc2ncnc(-c3cn(CC(F)F)nc3-c3ccccc3)c2cc1C(C)(C)O [Example 122, 2-(4-(1-(2,2-difluoroethyl)-3-phenyl-1H-pyrazol-4-yl)-7-methoxyquinazolin-6-yl) propan-2-ol] | 2.8 nM | 1.3 nM | 1.9 nM
COc1cc2ncnc(-c3cn(C)nc3-c3ccccc3)c2cc1OC(=O)N1[C@H](C)CN(C)C[C@H]1C [Example 89, 7-methoxy-4-(1-methyl-3-phenyl-1H-pyrazol-4-yl)quinazolin-6-yl (2R,6R)-2,4,6-trimethylpiperazine-1-carboxylate] | 5.7 nM | 1.9 nM | 5.4 nM
COc1cc2ncnc(-c3cn(CC(F)F)nc3-c3ccc(F)cc3)c2cc1C1(O)CC1 [Example 489] | 13.8 nM | 3.9 nM | 6.9 nM
COc1cc2ncnc(-c3cn(C)nc3-c3ccccc3)c2cc1NC(=O)N1CCN(C)[C@@H]2C[C@@H]21 (stereo in doubt) [Example 186, N-[7-methoxy-4-(1-methyl-3-phenyl-1H-pyrazol-4-yl)quinazolin-6-yl]-5-methyl-2,5-diazabicyclo[4.1.0]heptane-2-carboxamide] | 4 nM | 2.3 nM | 3.2 nM
COc1cc2ncnc(-c3cn(C)nc3-c3ccccc3)c2cc1OC(=O)N1CCOC[C@@H]1C [Example 62, 7-methoxy-4-(1-methyl-3-phenyl-1H-pyrazol-4-yl)quinazolin-6-yl (S)-3-methylmorpholine-4-carboxylate] | 8.7 nM | 2.5 nM | 4.2 nM
COc1cc2ncnc(-c3cn(C)nc3-c3ccccc3)c2cc1OC(=O)N1CCN(C)C[C@H]1C (single isomer, unassigned) [Example 58, 7-methoxy-4-(1-methyl-3-phenyl-1H-pyrazol-4-yl)quinazolin-6-yl (R)-2,4-dimethylpiperazine-1-carboxylate or 7-methoxy-4-(1-methyl-3-phenyl-1H-pyrazol-4-yl)quinazolin-6-yl(S)-2,4-dimethylpiperazine-1-carboxylate] | 5.1 nM | 2.5 nM | 4.5 nM
